# In patent US20080207738A1, “DRUG COMBINATIONS TO TREAT DRUG RESISTANT TUMORS” (priority 2007, published 2008):
# Read-outs that look alike come from different tables or passages of the source.
# Experiments:
# in vitro = details: human
# Source text: (§1) For the determination of relative number of viable cells before and after treatments, in most cases the MTT assay was used. This calorimetric assay is based on the ability of living cells, but not dead cells, to reduce 3-(4, 5-dimethyl thiazol-2-yl)-2, 5-diphenyltetrazolium bromide [Carmichael, J, De Graff, W. G., Gazdar, A. F., Minna, J. D. and Mitchell, J. B. (1987), “Evaluation oftetrazolium-based semiautomated calorimetric assay: Assessment of chemosensitivity testing,” Cancer Res., 47, 936-942]. For this assay, cells were plated in 96-well plates (10,000-30,000 cells in case of cultured cells, 100,000 cells in case of healthy lymphocytes, and 200,000 cells in case of chronic lymphocytic leukemia or non-Hodgkin lymphocytes) in the respective incubation media. After a 24-h resting period, the cells were treated with the test agents and then incubated (in CO2 incubator under humidified atmosphere) for 72 hours (final incubation volume, 150 μl). The MTT assay was performed both with the untreated and treated cell cultures at the conclusion of the incubation. Often, the MTT assay also was performed at the start of treatments to allow assessment of proliferation rates in the control and treated cell cultures. All data presented are the average of 4 incubations (in 4 separate wells) with the same cell population.
# Peripheral lymphocytes are known to be very sensitive to chemotherapy and this sensitivity often limits the dose of chemotherapy that can be employed. In this series of experiments, the combined effects of CCcompound104 alone or in combination with CCcompound26 or CCcompound3 were determined on the viability of peripheral lymphocytes to establish doses that reduce cell viability less than 50%. As in previous experiments, the treatments were performed for 72 hours.
# MCF-7/ADR cells = assay: MTT cell viability, MCF-7/ADR cells; assay type: cell-based, human; details: 72 h, CCcompound104 5 μg/ml, EA 60 μM, CCcompound26/CCcompound3/CCcompound19 50 μM, alone or combined
# Method: MCF/ADR cells were selected by incubating the parent MCF-7 with toxic concentrations (up to 10 μM) of adriamycin (doxorubicin). The selected drug resistant cells express both MDR1 and MRP1 among other molecular alterations as reviewed earlier [Kiss, Z., Tomono, M. and Anderson, W. B. (1994), “Phorbol ester selectively stimulates the phospholipase D-mediated hydrolysis of phosphatidylethanolamine in multidrug-resistant MCF-7 human breast carcinoma cells,” Biochem. J., 302, 649-654]. […] Ethacrynic acid (EA) alone, used at 60 μM concentration, decreased cell viability by about 24%, while CCcompound104 and EA in combination had 70% inhibitory effects (Table 7). In this cell line CCcompound104 and EA decreased cell viability synergistically.
# CLL cells = assay: cells; details: Homo sapiens, CLL cell; for cytotoxicity at 5 µM: 72 h, CCcompound3 5 μM, alone or combined
# Method: Heparinized peripheral-blood samples were obtained from chronic lymphocytic leukemia patients with more than 70% malignant cells after informed consent, in accordance with the Declaration of Helsinki. The blood samples (10-ml) were diluted 1:1 with cold phosphate buffered saline (PBS; 0.135 M NaCl, 2.7 mM KCl, 1.5 mM KH2PO4, 8 mM Na2HPO4 [pH 7.4]) and layered onto Ficoll-Hypaque (8-ml, specific gravity, 1.086; Life Technologies, Grand Island, N.Y.). Then, the blood was centrifuged at 433 g for 20 min, and mononuclear cells were removed from the interphase. Cells were washed twice with cold PBS and after each centrifugation step the pelleted cells were resuspended in 10-ml RPMI 1640 supplemented with 10% fetal bovine serum (inactivated for 30 min at 56° C.). A Coulter channelyzer (Coulter Electronics, Hialeah, Fla.) was used to determine the cell number. Then the number of cells was adjusted to 1×10^7 cells per 1 ml before using them for the experiments.
# as §1
# [1] = tested on: lymphoma cells derived from non-Hodgkin patients; assay: MTT cell viability, lymphoma cells from non-Hodgkin patients; assay type: cell-based; details: Homo sapiens, 72 h, CCcompound104 5 μg/ml, CCcompound26 1 μM, read-out: Inhibition (%) of viability
# Method: Lymphoma cells derived from two non-Hodgkin lymphoma patients were treated with EA (15 μM) in the absence or presence of CCcompound104 (5 μg/ml)+CCcompound26 (1 μM) for 72 hours. […] However, the 3 agents together decreased the number of viable cells by 91 and 97%, respectively (Table 13).
# MCF-7 cells = assay: Cell viability, MCF-7 cells; assay type: cell-based; details: Homo sapiens, MCF7, 72 h, read-out: decrease of cell viability
# Method: The MCF-7 cells were isolated from a human mammary tumor. After combined treatments with 5 μg/ml of CCcompound104 and 1 μM of CCcompound26 for 72 hours, the viability of these cells was decreased by 42%. EA (30 μM) alone decreased cell viability by 32%, while the 3 agents together decreased cell viability about 100% (i.e. practically no viable cells remained after the treatments).
# [2] = tested on: L5178/MDR1 mouse T-cell lymphoma cells; assay: cells; details: mouse, 72 h
# Source text: as §1
# L5178/MDR1 cells were seeded at 10,000 cells per well in 96-well plates and then incubated for 72 hours in the absence or presence of 5 μg/ml of CCcompound104 and various concentrations of CCcompound26 as indicated in Table 6.
# (§2) Epirubicin, like doxorubicin and other antracyclins, is an MDR1 substrate. The goal of this experiment was to use epirubicin as a model compound to determine if in L5178/MDR1 cells CCcompound104 also can enhance the effects of MDR1 substrate anti-cancer agents other than CCcompound26 and other thioxanthene or thioxanthone CC compounds. The parent and MDR1 expressing cells were seeded at 30,000 cells per well in 96-well microplates and after a 24-h resting period treated with increasing concentrations of epirubicin n in the absence or presence of 5 μg/ml of CCcompound104 for 72 hours.
# [3] = tested on: parent L5178 mouse T-cell lymphoma cells; assay: MTT cell viability, parent L5178 cells; details: L5178Y, 30,000 cells per well, 72 h
# Source text: as §1
# Parent L5178 cells were seeded at 10,000 cells per well in 96-well plates and then incubated for 72 hours in the absence or presence of CCcompound104 (1 or 5 μg/ml) and various concentrations of CCcompound26 as indicated in Table 5.
# as §2
structure (smiles),measurement,setting,value
CC[N+](C)(CC)CCOCc1ccc2sc3ccccc3c(=O)c2c1 [CCcompound3],"cytotoxicity at 72 h, 1 μM",in vitro; Inhibition (%) of viability,0%
same,"cytotoxicity at 72 h, 50 μM",in vitro; decrease of viability of healthy lymphocytes,6%
same,Inhibition (%) of viability,MCF-7/ADR cells,20.0%
same,cytotoxicity at 5 µM,"CLL cells; read-out: Inhibition (%) of viability, CLL patient 8, CCcompound104 5 μg/ml",7.8%
same,cytotoxicity at 5 µM,"CLL cells; read-out: Inhibition (%) of viability, CLL patient 9, CCcompound104 5 μg/ml",11.1%
same,cytotoxicity at 5 µM,"CLL cells; read-out: Inhibition (%) of viability, CLL patient 10, CCcompound104 5 μg/ml",32%
same,cytotoxicity at 5 µM,"CLL cells; read-out: Inhibition (%) of viability, CLL patient 11, CCcompound104 5 μg/ml",33.3%
same,cytotoxicity at 5 µM,"CLL cells; read-out: Inhibition (%) of viability, CLL patient 12, CCcompound104 5 μg/ml",26%
same,cytotoxicity at 5 µM,"CLL cells; read-out: Inhibition (%) of viability, CLL patient 13, CCcompound104 5 μg/ml",12.5%
same,cytotoxicity at 5 µM,"CLL cells; read-out: Inhibition (%) of viability, CLL patient 14, CCcompound104 5 μg/ml",36.3%
same,cytotoxicity at 5 µM,"CLL cells; read-out: Inhibition (%) of viability, CLL patient 15, CCcompound104 5 μg/ml",3.3%
same,cytotoxicity at 5 µM,"CLL cells; read-out: Inhibition (%) of viability, CLL patient 16, CCcompound104 5 μg/ml",50.1%
same,cytotoxicity at 5 µM,"CLL cells; read-out: Inhibition (%) of viability, CLL patient 17, CCcompound104 5 μg/ml",0%
same,cytotoxicity at 5 µM,"CLL cells; read-out: Inhibition (%) of viability, CLL patient 18, CCcompound104 5 μg/ml",6%
same,cytotoxicity at 5 µM,"CLL cells; read-out: Inhibition (%) of viability, CLL patient 19, CCcompound104 5 μg/ml",9.2%
same,cytotoxicity at 5 µM,"CLL cells; read-out: Inhibition (%) of viability, CLL patient 20, CCcompound104 5 μg/ml",0%
"C[N+](C)(C)CCC=C1c2ccccc2Sc2ccccc21.[I-] [CCcompound19, N,N,N-trimethyl-3-(9H-thioxanthen-9-ylidene)-propan-1-aminium iodide]",Inhibition (%) of viability,MCF-7/ADR cells,20.2%
"C=C(CC)C(=O)c1ccc(OCC(=O)O)c(Cl)c1Cl [EA, ethacrynic acid]",cytotoxicity at 60 µM,"MCF-7/ADR cells; Homo sapiens, NCI/ADR-RES, read-out: Inhibition (%) of viability",~24%
same,cytotoxicity at 15 µM,"[1]; non-Hodgkin patient 1, EA 15 μM",36.8%
same,cytotoxicity at 15 µM,"[1]; non-Hodgkin patient 2, EA 15 μM",42.4%
same,cytotoxicity at 15 µM,"[1]; non-Hodgkin patient 3, EA 15 μM",48.2%
same,cytotoxicity at 15 µM,"[1]; non-Hodgkin patient 4, EA 15 μM",53.1%
same,cytotoxicity at 30 µM,"CLL cells; read-out: Inhibition (%) of viability, resistant CLL cells, patient 17, EA 30 μM, CCcompound104 5 μg/ml, CCcompound26 1 μM",31.8%
same,cytotoxicity at 30 µM,"CLL cells; read-out: Inhibition (%) of viability, resistant CLL cells, patient 18, EA 30 μM, CCcompound104 5 μg/ml, CCcompound26 1 μM",38.3%
same,cytotoxicity at 30 µM,"CLL cells; read-out: decrease of viability of resistant CLL cells, over patients 17 and 18, EA 30 μM, CCcompound104 5 μg/ml, CCcompound26 1 μM",31 to 38%
same,cytotoxicity at 30 µM,MCF-7 cells,32%
"COc1cccc2c1C(=O)c1c(O)c3c(c(O)c1C2=O)C[C@@](O)(C(=O)CO)C[C@@H]3O[C@H]1C[C@H](N)[C@@H](O)[C@H](C)O1 [Epirubicin, epirubicin, reference compound]",Inhibition (%) of viability,[2]; 0.156 µg/ml,0%
same,Inhibition (%) of viability,[2]; 0.312 μg/ml,0%
same,Inhibition (%) of viability,[2]; 0.625 μg/ml,0%
same,Inhibition (%) of viability,[2]; 1.25 μg/ml,0%
same,Inhibition (%) of viability,[2]; 2.5 μg/ml,12.2%
same,Inhibition (%) of viability,[2]; 5 μg/ml,32.4%
same,Inhibition (%) of viability,[3]; Epirubicin 0.156 μg/ml without or with CC104 5 μg/ml,6.1%
same,Inhibition (%) of viability,[3]; Epirubicin 0.312 μg/ml without or with CC104 5 μg/ml,41.5%
same,Inhibition (%) of viability,[3]; Epirubicin 0.625 μg/ml without or with CC104 5 μg/ml,98.6%
same,Inhibition (%) of viability,[3]; Epirubicin 1.250 μg/ml without or with CC104 5 μg/ml,100%
same,Inhibition (%) of viability,[3]; Epirubicin 2.500 μg/ml without or with CC104 5 μg/ml,100%
same,Inhibition (%) of viability,[3]; Epirubicin 5.000 μg/ml without or with CC104 5 μg/ml,100%
